Consider two compounds from patent US11472752B2, “Method for making resistant to thiodicarb (carbamate) and bifenthrin (pyrethroid) a consortium of fungi that solubilise phosphorous and antagonise certain pathogens, for use in liquid biofertilisers for foliar and/or soil application” (priority 2018, dated 2022).

What all share (assay): Stagewise adaptation on growth media poisoned with thiodicarb or bifenthrin; mortality rate
Common to all, as to format: cell-based

In one series the test system is Beauveria bassiana. As to conditions: for Resistant to: FINAL: final characteristics after selective process. The method, then:
(§1) Strains of sulphur sulubilizer fungi, antagonist to some pathogens: • a) Paecilomyces sp. • b) Beauveria bassiana • c) Trichoderma harzianum • d) Metarhizium anisopliae Preparation for Stage Development 1. Glass material is sterilized in an autoclave. 2. The required amount of growth media is prepared with 3% rice broth (P/V), and 9% of a solution of molasses, sterilized at 121° C. for 15 minutes at a pressure of 15 lb. 3. Lethal dose (LD) applied to a hectare is established, for thiodicarb as well as bifenthrin. 10 Petri dishes are prepared with 0.1 LD of thiodicarb of bifenthrin. Dishes are incubated at 25° C. for 72 hours with cold light. 4. From the previous suspension with a known concentration, (107) the growth media is seeded with 1 ml, the pH adjustment is performed at 5.5 with a sterile 10 citric acid solution. 5. Stir at 110 rpm and 27 OC for 7 days. 6. The process is monitored controlling the variables, mainly the pH and biomass concentration, adjusting the pH to 5.5 during the entire process. 7. On the fourth day of the process, the foam formation is controlled with 1% soy oil and the stirring speed. Methodology a. Petri dishes are placed inside the laminar flow chamber along with the diluted samples, to seed microorganisms in the dishes, a one ml sample of the strain is taken with an automated pipette, 10^−1 and 10^−2 solutions are performed, and each solution is homogenized. b. Having the petri dishes with the sterile and cold growth media, it is homogenized with 6 right to left movements, 6 clockwise movements, 6 counterclockwise movements and 6 front to back movements over a flat horizontal surface until the inoculum is completely integrated into the media, stand until it solidifies and each dish is covered with parafilm to avoid contamination during incubation. c. Dishes with thiodicarb and Bifenthrin are placed inside the incubator at 25° C. for 72 hours with a cold light lamp. d. Inoculated dishes are incubated for 15 days, the product concentration impact is determined on mycelial growth, sporulation and germination (12 hours of incubation). e. The residual impact of the product is reviewed after 7 days in the malt agar, dextrose and PDA agar media, enriched with minerals. f. If there is no growth over 10%, the process is repeated until a mortality under 90% is obtained. g. […] After that, the suspension is stirred for 30 seconds in a Vortex tube mixer. The spore concentration is measured in a Newbawer Chamber and the results are reported in conidia per […]. i. From the 10 Petri dishes for each microorganism, the one with the lowest mortality rate is the one that will continue with the following study. j. The study is performed again using this percentage until coverage increases and so on, the addition of thiodicarb and bifenthrin is alternated with the LD in intervals of 0.1 LD; all these experiments have been designed with the experimental strains and a control. k. With the data obtained from the mycelial growth and sporulation, the percentage of inhibition of gradual growth is obtained, the data is transformed for its analysis with the expression 2 arc sin, and the sporulation through the equation Log 10(x+10). A two-way classification analysis of variance is applied and later the Turkey test is performed using a 5% probability.
(§2) For each species, stages analyzing times required to cover the entire field were performed. Once this time was determined, they were left to rest for 10 days to be later subject to the following protocol:
Stages begin with the conditions in its natural habitat: pH—7.0 a 7.5, Humidity: 30 to 40% and humidity is increased up to 70% and a Temperature from 28 to 30° C., maintained during all the research term. These conditions are the starting point to adapt the strain to thiodicarb (carbamate) and bifenthrin (pyrethroid). During all stages, we will be using a cold light lamp to adapt the microorganism to sunlight.

The next series relates to Metarhizium anisopliae. Conditions: for Resistant to: FINAL: final development characteristics. The procedure:
as §1
(§3) For each species, stages analyzing times required to cover the entire field were performed. Once this time was determined, they were left to rest for 10 days to be later subject to the following protocol: […]

The test system of another series is Paecilomyces sp. The method, then:
Strains of sulphur sulubilizer fungi, antagonist to some pathogens: • a) Paecilomyces sp. • b) Beauveria bassiana • c) Trichoderma harzianum • d) Metarhizium anisopliae Preparation for Stage Development 1. Glass material is sterilized in an autoclave. 2. The required amount of growth media is prepared with 3% rice broth (P/V), and 9% of a solution of molasses, sterilized at 121° C. for 15 minutes at a pressure of 15 lb. 3. Lethal dose (LD) applied to a hectare is established, for thiodicarb as well as bifenthrin. 10 Petri dishes are prepared with 0.1 LD of thiodicarb of bifenthrin. Dishes are incubated at 25° C. for 72 hours with cold light. 4. […] The process is monitored controlling the variables, mainly the pH and biomass concentration, adjusting the pH to 5.5 during the entire process. […] Inoculated dishes are incubated for 15 days, the product concentration impact is determined on mycelial growth, sporulation and germination (12 hours of incubation). e. […] The spore concentration is measured in a Newbawer Chamber and the results are reported in conidia per square millimeter. i. […]
as §3

A further series concerns Trichoderma harzianum. The method, then:
as §1, §2
Procedures begin with the conditions in its natural habitat: Humidity: 30 to 40% and humidity is increased up to 70% and a Temperature from 28 to 30° C., maintained during all the research term. pH from 7.0 to 7.5. These conditions are the starting point to adapt the strain to thiodicarb and bifenthrin.

[1] abbreviates: stages E-33 and E-34, 0.9 LD (0.00016 gr).
Setting [2] is: stages E-35 and E-36, 1 LD (0.00018 gr).
The mark [3] stands for this setting: stages E-25 and E-26, 0.7 LD (0.00012 gr).
[4] abbreviates: stages E-43 and E-44, 1.2 LD (0.00022 gr).
[5] abbreviates: stages E-49 and E-50, 1.1 LD (0.00024 gr).
Setting [6] is: stages E-51 and E-52, 1.2 LD (0.00026 gr).
Setting [7] is: stages E-3 and E-4, 0.2 LD (0.000035 gr).

`Cc1c(COC(=O)[C@@H]2[C@H](/C=C(\Cl)C(F)(F)F)C2(C)C)cccc1-c1ccccc1` (racemic) [bifenthrin, 2-methyl biphenyl-3-ilmetil(2)-(1RS,3RS)-3-(2-chlorine 3,3,3-trifluoropropene)-2,2-dimethyl-cyclo-propane-carboxylate]: the entries for the “Resistant to: FINAL” value in the series with Beauveria bassiana and in the series on Metarhizium anisopliae were 1 LD of thiodicarb and 1.3 LD of, respectively.
With `CS/C(C)=N\OC(=O)N(C)SN(C)C(=O)O/N=C(\C)SC` [thiodicarb], the mortality rate with Paecilomyces sp. (setting [1]) is on record as 8%; in the series with Paecilomyces sp. (setting [2]), 15%; in the series with Trichoderma harzianum (stage E-1, 0.1 LD (0.0000175 gr), until day 68 of incubation), 82%; in the series with Trichoderma harzianum (stage E-2, 0.1 LD (0.0000175 gr)), 85%; in the series with Trichoderma harzianum (stages E-11 and E-12, 0.4 LD (0.000070 gr)), 75%; with Trichoderma harzianum (stages E-19 and E-20, 0.6 LD (0.00011 gr)), 66%. Moreover, the mortality rate in the series on Trichoderma harzianum (setting [3]) is 60%; with Trichoderma harzianum (setting [4]), 18%; in the series on Trichoderma harzianum (setting [5]), 10%; in the series with Trichoderma harzianum (setting [6]) it was 8%; in the series with Beauveria bassiana (stages E-1 and E-2, 0.1 LD (0.0000175 gr), 32% humidity), 73%; in the series with Beauveria bassiana (setting [7]), 73-79%. The mortality rate with Beauveria bassiana (setting [3]) came out at 23%; in the series with Beauveria bassiana (setting [2]), 26%; in the series on Beauveria bassiana (setting [4]), 20%; with Beauveria bassiana (setting [5]), 14%; in the series with Beauveria bassiana (setting [6]), 11%; in the series with Metarhizium anisopliae (setting [7]), 55%. Moreover, the mortality rate in the series on Metarhizium anisopliae (setting [1]) and in the series with Metarhizium anisopliae (setting [2]) was 15% each time. Moreover, the “Resistant to: FINAL” value with Beauveria bassiana was 1 LD of thiodicarb; in the series on Metarhizium anisopliae, 1.3 LD of.
